Experimental data published in US7335814B2, “Transgenic cells expressing glucosyltransferase nucleic acids” (The University of York, priority 2000, dated 2008).

Key:
Assay type in all cases: biochemical
recombinant GTase A062 = biological target: T1, recombinant GTase A062 (Arabidopsis thaliana, UniProt Q9LR44); experiment: Specific activity of recombinant GTase producing glucose ester against lignin precursors (HPLC); details: 0.5 ml of potential substrates, 5 mM UDPG, 0.2 μg GTase, 200 μl, 20° C., 30 min
T1 construct: made in house; host or cells: E. coli
T1 sequence (Q9LR44 1-469): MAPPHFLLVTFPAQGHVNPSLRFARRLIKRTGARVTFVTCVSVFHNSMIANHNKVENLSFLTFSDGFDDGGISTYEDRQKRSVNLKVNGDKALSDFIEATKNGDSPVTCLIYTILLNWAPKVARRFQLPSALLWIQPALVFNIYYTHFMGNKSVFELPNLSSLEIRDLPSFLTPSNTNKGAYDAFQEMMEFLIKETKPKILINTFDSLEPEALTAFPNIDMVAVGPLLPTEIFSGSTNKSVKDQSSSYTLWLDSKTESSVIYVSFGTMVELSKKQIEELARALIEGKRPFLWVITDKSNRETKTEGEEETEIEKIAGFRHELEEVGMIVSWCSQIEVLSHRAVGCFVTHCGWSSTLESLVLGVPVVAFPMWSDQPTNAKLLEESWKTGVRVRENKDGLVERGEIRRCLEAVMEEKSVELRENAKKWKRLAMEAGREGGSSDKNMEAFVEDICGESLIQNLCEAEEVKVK

recombinant GTase A119 = biological target: T2, recombinant GTase A119 (Arabidopsis thaliana, UniProt Q9LVR1); experiment: Specific activity of recombinant GTase producing O-glucosides against lignin precursors (HPLC); details: 30° C.; ND = not detected
T2 construct: made in house; host or cells: E. coli
T2 sequence (Q9LVR1 1-481): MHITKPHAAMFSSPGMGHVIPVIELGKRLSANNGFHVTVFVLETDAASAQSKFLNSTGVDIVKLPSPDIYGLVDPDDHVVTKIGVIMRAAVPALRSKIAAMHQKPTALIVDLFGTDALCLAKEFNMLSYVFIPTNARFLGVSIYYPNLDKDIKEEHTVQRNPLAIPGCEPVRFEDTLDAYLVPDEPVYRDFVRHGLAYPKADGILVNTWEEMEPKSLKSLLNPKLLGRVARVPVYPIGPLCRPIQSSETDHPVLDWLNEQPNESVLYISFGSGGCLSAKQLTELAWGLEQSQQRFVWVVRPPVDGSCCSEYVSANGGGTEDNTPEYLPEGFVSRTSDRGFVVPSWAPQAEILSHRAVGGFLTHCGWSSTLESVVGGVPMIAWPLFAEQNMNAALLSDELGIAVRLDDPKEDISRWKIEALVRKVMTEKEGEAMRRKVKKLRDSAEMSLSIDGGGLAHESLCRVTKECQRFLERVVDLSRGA

recombinant GTase A41 = biological target: T3, recombinant GTase A41 (Arabidopsis thaliana, UniProt Q5XF20); experiment: Specific activity of recombinant GTase producing glucose ester against lignin precursors (HPLC); details: 5 mM UDPG, 0.2 μg GTase, 200 μl, 20° C., 30 min
T3 construct: made in house; host or cells: E. coli
T3 sequence (Q5XF20 7-490): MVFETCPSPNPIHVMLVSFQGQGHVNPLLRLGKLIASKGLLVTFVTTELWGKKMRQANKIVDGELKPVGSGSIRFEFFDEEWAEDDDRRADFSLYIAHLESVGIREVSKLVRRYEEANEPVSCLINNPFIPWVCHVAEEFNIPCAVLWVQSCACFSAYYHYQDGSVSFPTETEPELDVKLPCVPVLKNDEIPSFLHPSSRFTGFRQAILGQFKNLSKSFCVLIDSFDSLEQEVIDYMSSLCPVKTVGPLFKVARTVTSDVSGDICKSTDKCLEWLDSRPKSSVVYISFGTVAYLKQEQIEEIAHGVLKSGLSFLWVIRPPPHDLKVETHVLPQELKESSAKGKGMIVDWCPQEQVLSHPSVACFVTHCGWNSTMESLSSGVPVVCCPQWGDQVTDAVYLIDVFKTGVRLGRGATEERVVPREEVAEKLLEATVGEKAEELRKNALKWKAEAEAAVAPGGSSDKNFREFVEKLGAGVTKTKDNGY

recombinant GTase A407 = biological target: T4, recombinant GTase A407 (Arabidopsis thaliana, UniProt O81498); experiment: Specific activity of recombinant GTase producing O-glucosides against lignin precursors (HPLC); details: 30° C.; ND = not detected
T4 construct: made in house; host or cells: E. coli
T4 sequence (O81498 1-481): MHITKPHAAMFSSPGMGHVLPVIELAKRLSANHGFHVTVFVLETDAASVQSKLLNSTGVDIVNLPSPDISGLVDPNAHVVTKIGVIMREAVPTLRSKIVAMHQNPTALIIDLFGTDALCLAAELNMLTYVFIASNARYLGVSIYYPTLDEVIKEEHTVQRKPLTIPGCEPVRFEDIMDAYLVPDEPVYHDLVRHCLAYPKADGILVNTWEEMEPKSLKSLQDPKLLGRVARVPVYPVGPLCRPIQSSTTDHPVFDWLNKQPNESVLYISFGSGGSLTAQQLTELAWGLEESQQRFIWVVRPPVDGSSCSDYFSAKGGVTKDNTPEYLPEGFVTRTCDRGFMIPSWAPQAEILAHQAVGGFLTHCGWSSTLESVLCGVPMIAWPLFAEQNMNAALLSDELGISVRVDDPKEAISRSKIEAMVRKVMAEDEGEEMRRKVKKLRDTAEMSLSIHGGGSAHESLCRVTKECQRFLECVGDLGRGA

recombinant GTase A911 = biological target: T5, recombinant GTase A911 (Arabidopsis thaliana, UniProt O22182); experiment: Specific activity of recombinant GTase producing glucose ester against lignin precursors (HPLC); set-up: made in house; host or cells: E. coli; details: 0.5 ml of potential substrates, 5 mM UDPG, 0.2 μg GTase, 200 μl, 20° C., 30 min
T5 sequence (O22182 1-456): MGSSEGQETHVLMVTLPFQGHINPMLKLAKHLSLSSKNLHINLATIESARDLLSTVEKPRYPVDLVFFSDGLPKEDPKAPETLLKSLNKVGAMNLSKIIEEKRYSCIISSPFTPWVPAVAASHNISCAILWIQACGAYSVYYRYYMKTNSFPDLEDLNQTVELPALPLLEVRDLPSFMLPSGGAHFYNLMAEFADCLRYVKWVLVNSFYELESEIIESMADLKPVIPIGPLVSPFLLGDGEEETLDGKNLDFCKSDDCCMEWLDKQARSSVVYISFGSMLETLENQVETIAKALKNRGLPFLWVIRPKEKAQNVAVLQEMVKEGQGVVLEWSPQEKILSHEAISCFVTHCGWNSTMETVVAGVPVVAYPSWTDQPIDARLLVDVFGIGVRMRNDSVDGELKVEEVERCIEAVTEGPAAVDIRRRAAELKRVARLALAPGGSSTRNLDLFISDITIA

Row | SMILES | Specific activity of A062 (substrate converted to glucose ester) (recombinant GTase A062) [nkat/mg] | Specific activity of A119 (substrate converted to 4-O-glucoside) (recombinant GTase A119) [nkat/mg] | Specific activity of A41 (substrate converted to glucose ester) (recombinant GTase A41) [nkat/mg] | Specific activity of A407 (substrate converted to 4-O-glucoside) (recombinant GTase A407) [nkat/mg] | Specific activity of A911 (substrate converted to glucose ester) (recombinant GTase A911) [nkat/mg]
1 | COc1cc(/C=C/C(=O)O)ccc1O [Ferulic acid, ferulic acid] | 0.08 | 14.48 | 6.64 | 0.25 | 2.88
2 | O=C(O)/C=C/c1ccc(O)cc1 [p-coumaric acid] | 2.54 | 0.02 | 13.53 | 0.01 | 4.31
